{"source": "patent US10155802B2", "about": "“Locally-active anticoagulants and anti-inflammatory agents” (priority 2011, dated 2018)", "key": {"pooled human plasma [1]": {"tested_on": "pooled human plasma", "experiment": "Activated partial thromboplastin time (APTT) clotting assay", "format": "biochemical", "method_in_brief": "(§1)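 Test compound diluted in HBS (20 mM HEPES, 150 mM NaCl, pH 7.4), mixed with pooled normal human plasma at 37 °C; APTT started with APTT reagent then CaCl2, PT with thromboplastin. APTT value is concentration giving 50% of maximum clotting delay (MCT50); PT IC50 is concentration prolonging clotting time by 50%.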"}, "pooled human plasma [2]": {"tested_on": "pooled human plasma", "experiment": "Prothrombin time (PT, thromboplastin) clotting assay", "format": "biochemical", "method_in_brief": "as §1"}, "[3]": {"tested_on": "fresh blood withdrawn from rats with venous thrombosis", "experiment": "Clotting time (aPTT) of fresh blood withdrawn from treated rats", "format": "in vivo", "details": "rat, 0.2 mg/kg bolus + 0.00433 mg/kg/min infusion; 20 minutes after administration versus before", "procedure": "FIG. 23 illustrates the clotting times (aPTT) determined for fresh blood withdrawn from rats with venous thrombosis at three time points, the first before drug administration and vessel injury, the second at 20 minutes after FeCl3 application and the third 60 minutes following injection of the respective thrombin inhibitors. Clotting times (aPTT) are shown for different rats administered with each thrombin inhibitor, ZIP4 for MH2-wZIP4, ZIP5 for MH2-wZIP5 and T218 for BRI-T218. Dosage levels for every compound were 0.2 mg/kg for the single-bolus injection and 0.00433 mg/kg/min for the maintenance infusion,\nTerminal blood samples were analyzed for aPTT within 15 to 30 minutes of collection using a Coag DX Analyzer with aPTT citrate cartridges (IDEXX Laboratories, Westbrook, Me., USA)."}, "[4]": {"tested_on": "FeCl3-induced arterial thrombosis (carotid artery)", "experiment": "FeCl3-induced arterial model of thrombosis in rats (time to occlusion)", "format": "in vivo", "details": "rat, single bolus 0.2 mg/kg plus maintenance infusion 0.00433 mg/kg/min", "procedure": "Male Sprague-Dawley rats (250-310 g; Charles River Laboratories, St-Constant, QC, Canada) were acclimated for at least 3 days prior to the start of the study. Animals were housed in microisolator cages and were kept on a 12-hr light/dark cycle with constant temperature and humidity. Food and water were provided ad libitum. Various anti-thrombotic agents and peptides of this invention were dissolved in saline (0.9% sodium chloride) prior to use.\nThe FeCl3-induced arterial model of thrombosis in rats was also generated as described by Wang and Xu (Wang 2005) with some modifications (Couture 2011). Briefly, rats were anesthetized with a 2.5% isoflurane/oxygen mixture and placed on a heat source (35-37° C.). An incision was made over the right carotid artery, and a segment of the artery was exposed via blunt dissection. A Doppler flow probe (Model MA1PRB, Transonic System Inc., Ithaca, N.Y., USA) connected to a perivascular flow module (TS420, Transonic System Inc., Ithaca, N.Y., USA) was then attached to the carotid artery to monitor blood flow. Data were collected and analyzed using the MP100 Biopac™ Systems (Biopac Systems, Santa Barbara, Calif., USA), and the AcgKnowledge™ software (Biopac Systems, Santa Barbara, Calif., USA), respectively. Baseline blood flow was recorded for a minimum of 15 minutes until readings stabilized. Aquasonic 100 gel (Parker Laboratories, Inc., Fairfield, N.J., USA) was added to help conductivity and any fluid accumulating at the site of surgery was removed during data sampling without touching the probe. […] One minute after drug administration, a piece of filter paper (Gel Blot Paper, GB003, Whatman, Piscataway, N.J., USA; 7 mm diameter) saturated with 20% FeCl3 (EMD Chemicals Inc., Gibbstown, N.J., USA) was placed on the exposed surface of the carotid artery and incubated for 3.5 minutes. During the application of FeCl3, the neck region was covered with aluminum foil. At the end of the incubation period, the filter paper was removed and the exposed carotid was covered with a saline-soaked gauze. Time to occlusion was defined as the time from the application of FeCl3 until blood flow decreased to zero. […] Preparing and processing each animal took approximately 1 hr and 7 animals were treated each day. Control animals were always included when the other treatments were being administered. For this reason, the number of animals in the control group is higher than that of the treated-groups.\nStatistical analysis was conducted using GraphPad™ Prism (GraphPad Software Inc., San Diego Calif., USA). Data were analyzed using one-way ANOVA with post-hoc Bonferroni correction for multiple comparisons. The relationship between thrombus weight and thrombus volume was determined by linear regression. […]"}}, "note": "pEC50, pIC50: −log10 of the molar value.", "data": [{"smiles": "CC[C@H](C)[C@H](N)C(=O)N[C@@H](CCCNC(=N)N)C(=O)N[C@@H](Cc1ccccc1)C(=O)N[C@H](C(=O)N[C@@H](CC(=O)O)C(=O)NCC(=O)N[C@@H](CCC(=O)O)C(=O)N[C@@H](Cc1c[nH]c2ccccc12)C(=O)N[C@H](C(=O)N[C@@H](Cc1c[nH]c2ccccc12)C(=O)N[C@@H](CC(=O)O)C(=O)N[C@@H](CC(=O)O)C(=O)N[C@@H](C)C(=O)N[C@H](C(=O)N[C@@H](CCCCN)C(=O)N[C@H](C(=O)N[C@@H](Cc1c[nH]c2ccccc12)C(=O)N[C@H](C(=O)N[C@@H](Cc1c[nH]c2ccccc12)C(=O)N[C@H](C(=O)N[C@@H](CCC(=O)O)C(=O)NCC(=O)N[C@@H](CC(=O)O)C(=O)N[C@@H](Cc1ccccc1)C(=O)N[C@@H](CCC(=O)O)C(=O)N[C@@H](CCC(=O)O)C(=O)N[C@H](C(=O)N1CCC[C@H]1C(=O)N[C@@H](CCC(=O)O)C(=O)N[C@@H](CCC(=O)O)C(=O)N[C@@H](Cc1ccc(O)cc1)C(=O)N[C@@H](CC(C)C)C(=O)N[C@@H](CCC(N)=O)C(=O)O)[C@@H](C)CC)[C@@H](C)O)[C@@H](C)O)[C@@H](C)O)[C@@H](C)O)[C@@H](C)O)[C@@H](C)O", "note": "[MH2-wZIP4]", "values": [{"measurement": "pEC50", "setting": "pooled human plasma [1]; 37° C., concentration for 50% of maximum delay in clotting time, read-out: MTC50 (APTT)", "result": 5.10}, {"measurement": "dose response in APTT assays", "setting": "pooled human plasma [1]; in words", "result": "saturable dose response"}, {"measurement": "Plateau of prothrombin time dose response", "setting": "pooled human plasma [2]; 37° C.", "result": "(Plateau at >900 nM)"}, {"measurement": "pIC50", "setting": "pooled human plasma [2]; 37° C., concentration that prolongs clotting time by 50%", "result": 6.00}, {"measurement": "anticoagulant effect in PT versus APTT assays", "setting": "pooled human plasma [2]; in words", "result": "greatly-reduced anticoagulant potency in both the PT and APTT assays"}, {"measurement": "clotting time (aPTT), systemic anticoagulant effect", "setting": "[3]", "result": "only a slight prolongation of the clotting time (aPTT)"}, {"measurement": "anti-thrombotic efficacy in arterial model", "setting": "[4]", "result": "increases the efficacy"}]}]}
